This note sets out measurements from patent US20220162192A1 (ESCAPE Bio, Inc., priority 2019, published 2022).

The structures appear in SMILES notation. pIC50: −log10 of the molar value.

Assay [1] deals with T1, Recombinant wild type LRRK2 protein (Homo sapiens, UniProt Q5S007).
T1 construct: purchased Life Technologies PR8604B
Nature of the assay: LanthaScreen Kinase Activity Assay (TR-FRET), wild type LRRK2. The assay is classed as biochemical. The following applies: class symbols; 25 μM ATP, 400 nM LRRKtide, 2.9 nM kinase, 60 min at room temperature; read-out: LRRK2 WT IC50. Here is the method: (§1) LRRK2 kinase activity was measured using a LanthaScreen™ Kinase Activity Assay from ThermoFisher Scientific. Recombinant wild type or G2019S-LRRK2 protein (Life Technologies, PR8604B or PV4881, respectively), was incubated with a fluorescein-labeled peptide substrate called LRRKtide that is based upon ezrin/radixin/moesin (ERM) (Life Technologies, PV4901) in the presence of ATP and serially diluted compound. After an incubation period of 1 hr, the phosphotransferase activity was stopped and a terbium-labelled anti-pERM antibody (Life Technologies, PV4899) was added to detect the phosphorylation of LRRKtide by measuring the time resolved-Forster resonant energy transfer (TR-FRET) signal from the terbium label on the antibody to the fluorescein tag on LRRKtide, expressed as the 520 nm/495 nm emission ratio. Compound-dependent inhibition of the TR-FRET signal was used to generate a concentration-response curve for IC50 determination.
(§2) The assay was carried out under the following protocol conditions: 1 mM compound in DMSO was serially diluted 1:3, 11 points in DMSO with a Biomek FX and 0.1 μL of the diluted compound was subsequently stamped into the assay plate (384-well format Lumitrac 200, Greiner, 781075) with an Echo Labcyte such that the final compound concentration in the assay was 10 μM to […]. Subsequently, 5 μL of 2× kinase solution (2.9 nM final concentration) was added to the assay plate in assay buffer composed of 50 mM Tris pH 8.5 (Sigma, T6791), 5 mM MgCl2 (Fluka, 63020), 1 mM EGTA (Sigma, E3889), 0.01% BRIJ-35 (Sigma, P1254) and 2 mM DTT. The reaction was started by addition of 2×ATP/LRRKtide solution in assay buffer such that the final concentration was 400 nM LRRKtide and 25 μM ATP. After 60 min incubation at room temperature, the reaction was stopped by addition of […] containing a final concentration of 2 nM anti-pERM antibody and 10 mM EDTA. After a 30 min incubation at RT, the TR-FRET signal was measured on a Wallac 2104 EnVision® multilabel reader at an excitation wavelength of 340 nm and reading emission at 520 nm and 495 nm. The ratio of the 520 nm and 495 nm emission was used to analyze the data.

Assay [2] deals with T2, Recombinant G2019S-LRRK2 protein (Homo sapiens, UniProt Q5S007, G2019S).
T2 construct: purchased Life Technologies PV4881
T2 sequence (Q5S007 whole entry G2019S): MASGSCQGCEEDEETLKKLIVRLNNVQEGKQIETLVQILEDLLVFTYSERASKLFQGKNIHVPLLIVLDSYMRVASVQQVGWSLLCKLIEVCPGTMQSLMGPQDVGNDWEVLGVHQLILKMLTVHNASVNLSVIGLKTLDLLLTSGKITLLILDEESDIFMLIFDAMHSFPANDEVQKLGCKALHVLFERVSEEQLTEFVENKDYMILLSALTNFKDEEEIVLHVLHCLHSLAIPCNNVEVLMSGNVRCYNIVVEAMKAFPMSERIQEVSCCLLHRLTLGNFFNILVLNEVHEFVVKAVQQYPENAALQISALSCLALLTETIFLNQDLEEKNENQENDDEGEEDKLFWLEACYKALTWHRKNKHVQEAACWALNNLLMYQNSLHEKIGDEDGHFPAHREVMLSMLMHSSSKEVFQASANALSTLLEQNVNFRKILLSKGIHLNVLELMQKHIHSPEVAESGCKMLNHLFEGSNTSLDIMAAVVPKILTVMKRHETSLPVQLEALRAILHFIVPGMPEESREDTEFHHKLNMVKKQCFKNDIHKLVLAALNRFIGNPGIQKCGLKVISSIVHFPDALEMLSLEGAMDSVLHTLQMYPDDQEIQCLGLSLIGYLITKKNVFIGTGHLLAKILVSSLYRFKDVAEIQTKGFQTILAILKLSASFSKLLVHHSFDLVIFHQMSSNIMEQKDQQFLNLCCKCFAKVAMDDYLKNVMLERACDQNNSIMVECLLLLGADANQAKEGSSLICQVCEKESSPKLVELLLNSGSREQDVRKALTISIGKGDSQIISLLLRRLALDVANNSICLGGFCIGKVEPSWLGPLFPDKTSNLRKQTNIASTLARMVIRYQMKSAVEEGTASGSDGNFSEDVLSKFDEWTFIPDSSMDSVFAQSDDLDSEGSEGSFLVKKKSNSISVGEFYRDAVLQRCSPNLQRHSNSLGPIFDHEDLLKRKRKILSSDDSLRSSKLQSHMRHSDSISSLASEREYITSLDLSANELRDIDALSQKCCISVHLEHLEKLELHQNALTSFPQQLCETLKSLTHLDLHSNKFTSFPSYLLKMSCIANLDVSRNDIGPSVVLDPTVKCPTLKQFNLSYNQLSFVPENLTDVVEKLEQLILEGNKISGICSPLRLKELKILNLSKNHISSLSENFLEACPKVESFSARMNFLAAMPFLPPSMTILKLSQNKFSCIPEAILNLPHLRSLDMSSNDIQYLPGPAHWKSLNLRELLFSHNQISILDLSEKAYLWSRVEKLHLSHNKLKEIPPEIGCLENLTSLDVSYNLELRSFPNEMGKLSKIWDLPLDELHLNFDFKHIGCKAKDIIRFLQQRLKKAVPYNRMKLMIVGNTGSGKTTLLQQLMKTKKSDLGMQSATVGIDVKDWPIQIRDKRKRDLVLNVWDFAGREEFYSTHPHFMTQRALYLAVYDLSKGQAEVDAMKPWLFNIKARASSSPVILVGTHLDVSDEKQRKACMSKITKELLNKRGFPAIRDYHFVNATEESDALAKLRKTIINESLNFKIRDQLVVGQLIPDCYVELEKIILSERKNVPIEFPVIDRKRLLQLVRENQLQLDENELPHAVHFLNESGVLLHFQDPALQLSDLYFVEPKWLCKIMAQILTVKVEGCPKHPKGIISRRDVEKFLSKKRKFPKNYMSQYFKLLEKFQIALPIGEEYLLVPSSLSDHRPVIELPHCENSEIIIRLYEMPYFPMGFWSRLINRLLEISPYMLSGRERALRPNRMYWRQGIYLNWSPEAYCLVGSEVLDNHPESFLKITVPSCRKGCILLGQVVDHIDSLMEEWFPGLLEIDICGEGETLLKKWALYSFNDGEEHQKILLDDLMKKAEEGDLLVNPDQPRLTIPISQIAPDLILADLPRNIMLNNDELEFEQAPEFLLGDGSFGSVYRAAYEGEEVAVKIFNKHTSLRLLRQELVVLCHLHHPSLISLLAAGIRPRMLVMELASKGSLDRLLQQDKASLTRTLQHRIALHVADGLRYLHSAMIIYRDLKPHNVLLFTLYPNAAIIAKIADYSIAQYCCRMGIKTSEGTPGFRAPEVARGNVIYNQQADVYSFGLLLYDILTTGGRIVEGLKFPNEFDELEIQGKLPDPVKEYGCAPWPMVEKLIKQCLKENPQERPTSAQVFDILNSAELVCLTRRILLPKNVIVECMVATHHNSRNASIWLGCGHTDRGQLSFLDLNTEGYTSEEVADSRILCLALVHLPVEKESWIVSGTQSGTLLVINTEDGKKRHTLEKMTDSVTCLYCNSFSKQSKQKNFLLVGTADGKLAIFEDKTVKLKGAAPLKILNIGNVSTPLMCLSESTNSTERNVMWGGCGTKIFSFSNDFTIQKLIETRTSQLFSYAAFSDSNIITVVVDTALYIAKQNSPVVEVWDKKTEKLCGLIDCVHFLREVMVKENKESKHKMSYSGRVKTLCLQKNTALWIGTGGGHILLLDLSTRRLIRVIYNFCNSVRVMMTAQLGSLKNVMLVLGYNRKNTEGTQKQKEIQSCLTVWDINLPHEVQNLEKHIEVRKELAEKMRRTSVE
Briefly: LanthaScreen Kinase Activity Assay (TR-FRET), G2019S-LRRK2. The settings on record: class symbols; 25 μM ATP, 400 nM LRRKtide, 2.9 nM kinase, 60 min at room temperature. The assay is classed as biochemical. The procedure: as §1, §2
(In general: Time-resolved FRET reads energy transfer from a long-lived donor to a nearby acceptor.)

T1 sequence (Q5S007 whole entry): as the sequence (Q5S007 whole entry G2019S) above, with S2019G counted along it

With `Cn1ncc2cc(C(=O)Nc3ccc4[nH]nc(-c5ccoc5)c4c3)ccc21` [Example 133, N-(3-(Furan-3-yl)-1H-indazol-5-yl)-1-methyl-1H-indazole-5-carboxamide], the pIC50 in assay [1] and in assay [2] was at least 7.00 each time.

Regarding `Cc1cc2[nH]cnc2cc1C(=O)Nc1ccc2[nH]nc(Br)c2c1` [Example 18, N-(3-Bromo-1H-indazol-5-yl)-6-methyl-1H-benzo[d]imidazole-5-carboxamide], the negative-log IC50 (pIC50) in assay [1] and in assay [2] was 6.00 to 7.00 each time.

Turning to `Cn1cc2c(n1)CCC(C(=O)Nc1ccc3[nH]nc(-c4ccoc4)c3c1)C2` (single isomer, unassigned) [Example 161d], the negative logarithm of the IC50 (pIC50) (in general, the IC50 on a negative log10 scale, so that one unit is a factor of ten) in assay [1] is 6.00 to 7.00; in assay [2] it was at least 7.00.

In the case of `O=C(Nc1ccc2[nH]nc(-c3ccoc3)c2c1)c1cc2ncccc2s1` [Example 125, N-(3-(Furan-3-yl)-1H-indazol-5-yl)thieno[3,2-b]pyridine-2-carboxamide], the pIC50 is 6.00 to 7.00 in assay [1] and at least 7.00 in assay [2].

For `Cc1cc2c(C)ncn2c(C)c1C(=O)Nc1ccc2[nH]nc(C)c2c1` [Example 148, 1,5,7-Trimethyl-N-(3-methyl-1H-indazol-5-yl)imidazo[1,5-a]pyridine-6-carboxamide], the pIC50 in assay [1] was 6.00 to 7.00; in assay [2], at least 7.00.

As to `CN(C)c1cccc(-c2n[nH]c3ccc(NC(=O)c4c(F)cc5c(cnn5C)c4F)cc23)c1` [Example 88, N-(3-(3-(Dimethylamino)phenyl)-1H-indazol-5-yl)-4,6-difluoro-1-methyl-1H-indazole-5-carboxamide], the pIC50 in assay [1] and in assay [2] was at least 7.00 in each case.

As for `Cc1cc2nn[nH]c2cc1C(=O)Nc1ccc2[nH]nc(-c3ccncc3)c2c1` [Example 1], the negative-log IC50 (pIC50) in assay [1] is 6.00 to 7.00; in assay [2], at least 7.00.

On to `Cn1ncc2cc(C(=O)Nc3ccc4[nH]nc(-c5cnco5)c4c3)ncc21` [Example 167, 1-Methyl-N-(3-(oxazol-5-yl)-1H-indazol-5-yl)-1H-pyrazolo[3,4-c]pyridine-5-carboxamide], for which the figures for the pIC50 in assay [1] and in assay [2] were 6.00 to 7.00 and at least 7.00, respectively.

Take `O=C(Nc1ccc2[nH]nc(-c3ccoc3)c2c1)C1CCc2nncn2C1` (single isomer, unassigned) [Example 162a]: the pIC50 in assay [1] and in assay [2] was at least 7.00 in each case.

In the case of `Cc1n[nH]c2ccc(NC(=O)c3ccn4cnnc4c3)cc12` [Example 5, N-(3-Methyl-1H-indazol-5-yl)-[1,2,4]triazolo[4,3-a]pyridine-7-carboxamide], the negative-log IC50 (pIC50) in assay [1] and in assay [2] was 5.00 to 6.00 throughout.

Consider `Cc1cc2nncn2c(C)c1C(=O)Nc1ccc2[nH]nc(-c3ccoc3)c2c1` [Example 153, N-(3-(Furan-3-yl)-1H-indazol-5-yl)-5,7-dimethyl-[1,2,4]triazolo[4,3-a]pyridine-6-carboxamide], for which the negative-log IC50 (pIC50) in assay [1] and in assay [2] was at least 7.00 throughout.

On to `Cc1c(C(=O)Nc2ccc3[nH]nc(-c4ccccc4)c3c2)c(Cl)cn2cnnc12` [Example 59, 6-Chloro-8-methyl-N-(3-phenyl-1H-indazol-5-yl)-[1,2,4]triazolo[4,3-a]pyridine-7-carboxamide], for which the pIC50 in assay [1] and in assay [2] was at least 7.00 in each case.

Consider `Cc1nn(C)cc1-c1n[nH]c2ccc(NC(=O)c3c(F)cc4c(cnn4C)c3F)cc12` [Example 80, N-(3-(1,3-Dimethyl-1H-pyrazol-4-yl)-1H-indazol-5-yl)-4,6-difluoro-1-methyl-1H-indazole-5-carboxamide], for which the pIC50 in assay [1] and in assay [2] was at least 7.00 in each case.

In the case of `Cc1n[nH]c2ccc(NC(=O)c3ccc4nn[nH]c4c3)cc12` [Example 9, N-(3-Methyl-1H-indazol-5-yl)-1H-benzo[d][1,2,3]triazole-6-carboxamide], the negative-log IC50 (pIC50) in assay [1] and in assay [2] was 5.00 to 6.00 throughout.

Consider `Cc1cc(-c2n[nH]c3ccc(NC(=O)c4c(F)cc5c(cnn5C)c4F)cc23)n(C)n1` [Example 79, N-(3-(1,3-Dimethyl-1H-pyrazol-5-yl)-1H-indazol-5-yl)-4,6-difluoro-1-methyl-1H-indazole-5-carboxamide], for which the pIC50 is 5.00 to 6.00 in assay [1] and 6.00 to 7.00 in assay [2].

As for `O=C(Nc1ccc2[nH]nc(-c3ccoc3)c2c1)c1cn2cccnc2n1` [Example 128, N-(3-(Furan-3-yl)-1H-indazol-5-yl)imidazo[1,2-a]pyrimidine-2-carboxamide], the pIC50 in assay [1] and in assay [2] was 6.00 to 7.00 in each case.

With `Cc1cc2c(cnn2C)c(C)c1C(=O)Nc1ccc2[nH]nc(-c3ccoc3)c2c1` [Example 157, N-(3-(Furan-3-yl)-1H-indazol-5-yl)-1,4,6-trimethyl-1H-indazole-5-carboxamide], the negative-log IC50 (pIC50) in assay [1] and in assay [2] was at least 7.00 each time.

Consider `Cc1cc2cnnn2c(C)c1C(=O)Nc1ccc2[nH]nc(C)c2c1` [Example 49, 5,7-Dimethyl-N-(3-methyl-1H-indazol-5-yl)-[1,2,3]triazolo[1,5-a]pyridine-6-carboxamide], for which the pIC50 in assay [1] was 5.00 to 6.00; in assay [2], at least 7.00.

For the molecule `COc1ccncc1-c1n[nH]c2ccc(NC(=O)c3c(F)cc4c(cnn4C)c3F)cc12` [Example 102, 4,6-Difluoro-N-(3-(4-methoxypyridin-3-yl)-1H-indazol-5-yl)-1-methyl-1H-indazole-5-carboxamide], the figures for the negative logarithm of the IC50 (pIC50) in assay [1] and in assay [2] were 6.00 to 7.00 and at least 7.00, respectively.

As to `COc1n[nH]c2ccc(NC(=O)c3c(F)cc4c(cnn4C)c3F)cc12` [Example 106, 4,6-Difluoro-N-(3-methoxy-1H-indazol-5-yl)-1-methyl-1H-indazole-5-carboxamide], the pIC50 in assay [1] was 5.00 to 6.00; in assay [2], at least 7.00.

For the molecule `O=C(Nc1ccc2[nH]nc(-c3ccoc3)c2c1)c1cnc2ccnn2c1` [Example 130, N-(3-(Furan-3-yl)-1H-indazol-5-yl)pyrazolo[1,5-a]pyrimidine-6-carboxamide], the pIC50 in assay [1] and in assay [2] was 6.00 to 7.00 in each case.

As for `Cc1nn2ccncc2c1C(=O)Nc1ccc2[nH]nc(-c3ccoc3)c2c1` [Example 164, N-(3-(furan-3-yl)-1H-indazol-5-yl)-2-methylpyrazolo[1,5-a]pyrazine-3-carboxamide], the pIC50 in assay [1] and in assay [2] was 6.00 to 7.00 throughout.

With `Cn1ncc2c(F)c(C(=O)Nc3ccc4[nH]nc(-c5ccccc5O)c4c3)c(F)cc21` [Example 75, 4,6-Difluoro-N-(3-(2-hydroxyphenyl)-1H-indazol-5-yl)-1-methyl-1H-indazole-5-carboxamide], the negative-log IC50 (pIC50) in assay [1] was 5.00 to 6.00; in assay [2] it was 6.00 to 7.00.

Turning to `Cc1cn2cncc2cc1C(=O)Nc1ccc2[nH]nc(-c3ccco3)c2c1` [Example 154, N-(3-(Furan-2-yl)-1H-indazol-5-yl)-6-methylimidazo[1,5-a]pyridine-7-carboxamide], the negative logarithm of the IC50 (pIC50) in assay [1] and in assay [2] was at least 7.00 in each case.

Consider `O=C(Nc1ccc2[nH]nc(-c3ccoc3)c2c1)c1ccc2ocnc2c1` [Example 126, N-(3-(Furan-3-yl)-1H-indazol-5-yl)benzo[d]oxazole-5-carboxamide], for which the values for the negative-log IC50 (pIC50) in assay [1] and in assay [2] were 6.00 to 7.00 and at least 7.00, respectively.

`Cn1ncc2c(F)c(C(=O)Nc3ccc4[nH]nc(-c5ccon5)c4c3)c(F)cc21` [Example 135, 4,6-Difluoro-N-(3-(isoxazol-3-yl)-1H-indazol-5-yl)-1-methyl-1H-indazole-5-carboxamide]: the negative logarithm of the IC50 (pIC50) in assay [1] and in assay [2] was at least 7.00 in each case.

On to `Cc1n[nH]c2ccc(NC(=O)c3c(F)cc4c(cnn4C)c3F)cc12` [Example 51, 4,6-Difluoro-1-methyl-N-(3-methyl-1H-indazol-5-yl)-1H-indazole-5-carboxamide], for which the pIC50 in assay [1] was 6.00 to 7.00; in assay [2], at least 7.00.

For `Cc1nc2ccc(C(=O)Nc3ccc4[nH]nc(-c5ccoc5)c4c3)cc2o1` [Example 134, N-(3-(Furan-3-yl)-1H-indazol-5-yl)-2-methylbenzo[d]oxazole-6-carboxamide], the pIC50 was 6.00 to 7.00 in assay [1] and at least 7.00 in assay [2].

Consider `Cn1ncc2c(F)c(C(=O)Nc3ccc4[nH]nc(-n5ccnc5)c4c3)c(F)cc21` [Example 141, N-(3-(1H-Imidazol-1-yl)-1H-indazol-5-yl)-4,6-difluoro-1-methyl-1H-indazole-5-carboxamide], for which the results for the pIC50 in assay [1] and in assay [2] were 6.00 to 7.00 and at least 7.00, respectively.
